From patent US20260144788A1, “COMPOUND FOR SHP2 PROTEIN DEGRADATION AND MEDICAL USES THEREOF” (UBIX THERAPEUTICS, INC., priority 2022, published 2026)

Molecular target: T1, SHP2 protein (Homo sapiens, UniProt Q06124)
T1 sequence (Q06124 1-593): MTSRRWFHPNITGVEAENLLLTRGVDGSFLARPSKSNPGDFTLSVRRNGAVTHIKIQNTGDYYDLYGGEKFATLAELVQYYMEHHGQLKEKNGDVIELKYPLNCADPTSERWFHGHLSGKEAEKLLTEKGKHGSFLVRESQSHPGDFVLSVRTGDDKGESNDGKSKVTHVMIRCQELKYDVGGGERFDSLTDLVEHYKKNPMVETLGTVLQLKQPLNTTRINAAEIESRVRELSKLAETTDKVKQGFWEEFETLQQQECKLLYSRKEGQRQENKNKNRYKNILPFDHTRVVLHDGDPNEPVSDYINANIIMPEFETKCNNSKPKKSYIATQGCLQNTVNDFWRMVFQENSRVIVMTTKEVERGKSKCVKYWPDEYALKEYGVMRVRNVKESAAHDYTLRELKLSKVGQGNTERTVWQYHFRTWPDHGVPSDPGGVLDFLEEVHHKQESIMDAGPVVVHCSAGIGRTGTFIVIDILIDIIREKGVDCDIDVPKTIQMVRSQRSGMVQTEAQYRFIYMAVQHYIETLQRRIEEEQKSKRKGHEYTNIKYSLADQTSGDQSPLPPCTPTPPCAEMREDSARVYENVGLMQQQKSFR
Assay: Measurement of SHP2 protein degradation in NCI-H358 cells (western blotting)
Type: cell-based
Set-up: endogenous in cells; host or cells: NCI-H358
Details: harvested after 24 hours
Summary of the method: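 H358 cells in RPMI1640/25 mM HEPES/10% FBS, cultured 24 h, then exposed to compound at final 0.001, 0.01 and 0.1 μM for 24 h against a DMSO control. Lysates were normalised for protein by BCA and probed by western blot for SHP2, with GAPDH as loading control.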

Row | SHP2% degradation (0.01 μM) [%] | SHP2% degradation (0.1 μM) [%] | Structure (SMILES)
1 | 98.3 | 99.9 | CC(=O)N[C@H](C(=O)N1C[C@H](O)C[C@H]1C(=O)NCc1ccc(-c2scnc2C)cc1OC1CCN(C(=O)C2CCN(c3cccc(Sc4cnc(N5CCC6(CC5)CO[C@@H](C)[C@H]6N)c(CO)n4)c3Cl)CC2)CC1)C(C)(C)C [Example 85, (2S,4R)-1-((S)-2-acetamido-3,3-dimethylbutanoyl)-N-(2-((1-(1-(3-((5-((3S,4S)-4-amino-3-methyl-2-oxa-8-azaspiro[4.5]decan-8-yl)-6-(hydroxymethyl)pyrazin-2-yl)thio)-2-chlorophenyl)piperidine-4-carbonyl)piperidin-4-yl)oxy)-4-(4-methylthiazol-5-yl)benzyl)-4-hydroxypyrrolidine-2-carboxamide]
2 | 97.0 | 99.9 | Cc1ncsc1-c1ccc(CNC(=O)[C@@H]2C[C@@H](O)CN2C(=O)[C@@H](NC(=O)CC#N)C(C)(C)C)c(OC2CCN(C(=O)C3CCN(c4nccc(Sc5cnc(N6CCC7(CC6)CO[C@@H](C)[C@H]7N)c(CO)n5)c4Cl)CC3)CC2)c1 [Example 88, (2S,4R)—N-(2-((1-(1-(4-((5-((3S,4S)-4-amino-3-methyl-2-oxa-8-azaspiro[4.5]decan-8-yl)-6-(hydroxymethyl)pyrazin-2-yl)thio)-3-chloropyridin-2-yl)piperidine-4-carbonyl)piperidin-4-yl)oxy)-4-(4-methylthiazol-5-yl)benzyl)-1-((S)-2-(2-cyanoacetamido)-3,3-dimethylbutanoyl)-4-hydroxypyrrolidine-2-carboxamide]
3 | 98.8 | 99.9 | Cc1ncsc1-c1ccc(CNC(=O)[C@@H]2C[C@@H](O)CN2C(=O)[C@@H](NC(=O)CO)C(C)(C)C)c(OC2CCN(C(=O)C3CCN(c4nccc(Sc5cnc(N6CCC7(CC6)CO[C@@H](C)[C@H]7N)c(CO)n5)c4Cl)CC3)CC2)c1 [Example 89, (2S,4R)—N-(2-((1-(1-(4-((5-((3S,4S)-4-amino-3-methyl-2-oxa-8-azaspiro[4.5]decan-8-yl)-6-(hydroxymethyl)pyrazin-2-yl)thio)-3-chloropyridin-2-yl)piperidine-4-carbonyl)piperidin-4-yl)oxy)-4-(4-methylthiazol-5-yl)benzyl)-4-hydroxy-1-((S)-2-(2-hydroxyacetamido)-3,3-dimethylbutanoyl)pyrrolidine-2-carboxamide]
4 | 70.5 | 99.2 | CC(=O)N[C@H](C(=O)N1C[C@H](O)C[C@H]1C(=O)NCc1ccc(-c2scnc2C)cc1OC1CCN(C(=O)C2CCN(c3nccc(Sc4cnc(N5CCC(C)(CN)CC5)cn4)c3Cl)CC2)CC1)C(C)C [Example 90, (2S,4R)-1-(acetyl-L-valyl)-N-(2-((1-(1-(4-((5-(4-(aminomethyl)-4-methylpiperidin-1-yl)pyrazin-2-yl)thio)-3-chloropyridin-2-yl)piperidine-4-carbonyl)piperidin-4-yl)oxy)-4-(4-methylthiazol-5-yl)benzyl)-4-hydroxypyrrolidine-2-carboxamide]
5 | 53.2 | 98.5 | CC(=O)N[C@H](C(=O)N1C[C@H](O)C[C@H]1C(=O)NCc1ccc(-c2scnc2C)cc1OC1CCN(C(=O)C2CCN(c3nccc(Sc4cnc(N5CCC(C)(CN)CC5)cn4)c3Cl)CC2)CC1)C1CC1 [Example 91, (2S,4R)-1-((S)-2-acetamido-2-cyclopropylacetyl)-N-(2-((1-(1-(4-((5-(4-(aminomethyl)-4-methylpiperidin-1-yl)pyrazin-2-yl)thio)-3-chloropyridin-2-yl)piperidine-4-carbonyl)piperidin-4-yl)oxy)-4-(4-methylthiazol-5-yl)benzyl)-4-hydroxypyrrolidine-2-carboxamide]
